What was measured:
Bel-7402 = test: In vitro Inhibitory concentration against BEL-7402 human hepatocarcinoma cell line; Tested by sulforhodamine B colorimetric assay; assay type: functional, cell-based
HL-60 = test: In vitro Inhibitory concentration against HL-60 human leukemia cell line; Tested by trypan blue exclusion test; assay type: functional, cell-based
A549 = test: In vitro Inhibitory Concentration against A549 human lung carcinoma cell line; Tested by sulforhodamine B colorimetric assay; assay type: functional, cell-based
[1] = In vitro Inhibitory concentration against 3AO human ovarian carcinoma cell line; Tested by sulforhodamine B colorimetric assay; assay type: functional
Homo sapiens [2] = test: In vivo antitumor activity against LS-174T human colon carcinoma in mice at 6 (mg/kgper dose); assay type: functional, organism-based
Homo sapiens [3] = test: Ratio of TRTV and CRTV at 9 (mg/kgper dose) in LS-174T human colon carcinoma implanted in mice; (TRTV=relative tumor volume of the treated group; CRTV=relative tumor volume of the control group); assay type: functional, organism-based
Homo sapiens [4] = test: In vivo antitumor activity against LS-174T human colon carcinoma in mice at 9 (mg/kgper dose); assay type: functional, organism-based
Homo sapiens [5] = test: Ratio of TRTV and CRTV at 6 (mg/kgper dose) in LS-174T human colon carcinoma implanted in mice; (TRTV=relative tumor volume of the treated group; CRTV=relative tumor volume of the control group); assay type: functional, organism-based

IC50 (Bel-7402) [µM]	IC50 (HL-60) [µM]	IC50 (A549) [µM]	IC50 [1] [µM]	Sequence	Inhibition tumor index (Homo sapiens [2]) [%]	T/C (Homo sapiens [3]) [%]	Inhibition tumor index (Homo sapiens [4]) [%]	T/C (Homo sapiens [5]) [%]
36.1	2.86	42.3	29.1	CARBOPLATIN	–	–	–	–
0.77	0.33	2.23	0.47	CISPLATIN	–	–	–	–
–	–	–	–	OXALIPLATIN	24	50.8	51	87.4

Reference: ChEMBL document CHEMBL1140257, “Potential new antitumor agents from an innovative combination of camphorato, a ramification of traditional Chinese medicine, with a platinum moiety” (Bioorg Med Chem Lett, 2005)
